“Also recorded” adds a separate entry of the source. Where two headings read alike, the source gives them in different places.
Tests used:
P. aeruginosa strain 762 = experiment: Effect of LCBs on P. aeruginosa growth in vitro (colony counts); assay type: cell-based, Pseudomonas aeruginosa; conditions: for inhibition of P. aeruginosa growth in vitro (in words): concentrations up to 50 μM
Procedure: P. aeruginosa strain 762 or ATCC 27853 were grown in LB medium at 37° C. until the early logarithmic phase (OD550 0.2). Bacteria were then diluted in PBS to a concentration of 5×10^3 CFU/ml. Stock solutions of sphingolipids (5 mM in 7.5% n-Octyl-β-D-Glucopyranoside (OGP) or in DMSO were prepared by sonication. Sphingolipids were added to the bacteria (0.1-50 μM in 0.075% OGP or 1% DMSO). Bacteria were incubated with sphingolipids for 2 hr at 37° C. and a sample of 200 μl bacteria solution were plated on LB agar plates, incubated overnight at 37° C. and colonies were counted.
The direct effect of sphingosine and other sphingoid long chain bases (LCBs) on the growth of P. aeruginosa was examined in vitro. Bacteria were incubated with a variety of LCBs and the EC50 values on bacterial growth were determined (Table 1).

[1] = cited from earlier work
[2] = test system: P. aeruginosa strains 762, PA14 and ATCC 27853; experiment: Pulmonary P. aeruginosa infection of CF and CerS2 null mice, inhalation treatment (bacteria in lung, sickness score); assay type: in vivo, mouse; conditions: CF and CerS2 null mice; inhalation (125 μM) 1 h before or 1 h after intranasal infection with 1×10^8 CFU
Procedure: (A,B) The number of bacteria in the lungs and the overall sickness score (C,D) of WT, CerS2 null and CF mice 3-4 h after intranasal infection with 1×10^8 CFU of P. aeruginosa strains 762 (A,C) and CF mice with strains PA14 and ATCC 27853. Mice were inhaled with 0.9% NaCl or acid ceramidase 1 h prior (b.i.) to infection, or with sphingosine or FTY720 1 h before (b.i.) or 1 h after (a.i.) infection. Sickness score 4, severely affected (unresponsive animal); score 3 affected, (heavy breathing, low body temperature, ruffled fur) score 2, moderately affected (ruffled fur, heavy breathing); score 1, slightly affected (ruffled fur); score 0, unaffected (healthy appearance). Data are means±s.d., n=4.
Pulmonary infection of CF or CerS2 mice was achieved by intranasal application of P. aeruginosa strains 762, ATCC 27853 or PA14. Mice inhaled acid ceramidase, sphingosine, FTY720 or a combination of sphingosine and ceramide 1 hr before or after pulmonary infection. The number of bacteria in the lung was determined by culturing aliquots of lysed lungs on agar plates. Clinical symptoms of the infection were scored.
Inhalation was performed with a PARI Boy SX nebulizer (PARI GmbH, Starnberg, Germany). This nebulizer generates a fine aerosol mist by pumping the fluid with an air jet. The mice inhaled the aerosol via a mask that is part of an oral inhalation device for children (LL-Nebulizer); the mask was clipped at the sides to cover only the mouse's nose and the surrounding part of the face. […]
P. aeruginosa were grown for 14 to 14.5 h on fresh tryptic soy agar (TSA) plates (Becton Dickinson Biosciences, Germany). […] The bacterial OD was determined, and the bacteria were diluted in prewarmed H/S to a concentration of 1×10^8 CFU per 20 μL. […]
Lungs were removed, homogenised and lysed for 10 min in 5 mg/ml saponin to release intracellular bacteria. […] Bacterial counts (CFU) were counted after 18 h.

[3] = test system: P. aeruginosa ATCC 27853 internalization into tracheal epithelial cells; experiment: Uptake of P. aeruginosa into tracheal epithelial cells with cytochalasin B; assay type: cell-based, mouse; conditions: 10 μM cytochalasin B; strain ATCC 27853; data not shown
[4] = Pseudomonas aeruginosa, 762, Table 3, Example 3, method of Example 2, n=3 for each analog, given as ranges, read-out: EC50
[5] = Pseudomonas aeruginosa, P. aeruginosa strain 762, 2 hrs at 37° C. in 0.075% OGP, colonies counted, at least 3 independent experiments, read-out: EC50 (μM) ± S.D.
[6] = Pseudomonas aeruginosa, Table 2 non-inhibitors, strain 762, up to 50 μM in 0.075% OGP, 2 hrs at 37° C., read-out: EC50

Q: Which results are given for `CCCC[C@@H](C)[C@@H](OC(=O)C[C@@H](CC(=O)O)C(=O)O)[C@H](C[C@@H](C)C[C@H](O)CCCC[C@@H](O)C[C@H](O)[C@H](C)N)OC(=O)C[C@@H](CC(=O)O)C(=O)O` (stereo in doubt) [FB1, fumonisin B1, reference compound]?
A: EC50 (P. aeruginosa strain 762; Pseudomonas aeruginosa, 762): > 50 µM; inhibition of P. aeruginosa growth in vitro (in words) (P. aeruginosa strain 762): without effect; also recorded: did not inhibit growth of the bacteria at all; pKa (in PBS) ([1]; superscript reference mark): >9^4

Q: With `CCCCCCCCCCCCC/C=C/[C@H](O)[C@H](N)CO[C@@H]1O[C@H](CO)[C@H](O)[C@H](O)[C@H]1O` (stereo in doubt) [Galactosyl Sphingosine (Psychosine), Galactosyl D-erythro-sphingosine (psychosine)] as the molecule, how does the EC50 (P. aeruginosa strain 762; [4]) read?
A: Its EC50 is 1 to 5 µM.

Q: What about the EC50 (P. aeruginosa strain 762; [5]) of the same molecule?
A: The EC50 was 2.2 ± 1.4 µM.

Q: What does the source list for `CCCCCCCCCCCCCCC[C@@H](O)[C@H](N)CO` (stereo in doubt) [L-threo-dihydrosphingosine (Safingol), L-threo-dihydrosphingosine (L-threo-sphinganine)]?
A: EC50 (P. aeruginosa strain 762; [4]): 0.5 to 1 µM; EC50 (P. aeruginosa strain 762; [5]): 0.4 µM; inhibition of P. aeruginosa growth in vitro (in words) (P. aeruginosa strain 762; listed as L-threo-dihydrosphingosine): inhibits as well as the natural occurring D-erythro enantiomer; inhibition of P. aeruginosa growth in vitro (in words) (P. aeruginosa strain 762; listed as L-threo-sphinganine): more potent than the neutral ones

Q: Which EC50 (P. aeruginosa strain 762; [4]) does the source give for `CCCCCCCCCCCCC/C=C/[C@@H](O)[C@H](N)CO` (stereo in doubt) [L-threo-sphingosine] here?
A: The EC50 was 0.5 to 1 µM.

Q: And the EC50 (P. aeruginosa strain 762; [5])?
A: Its EC50 is 0.6 ± 0.2 µM.

Q: Which results are given for `CCCCCCCCCCCCC/C=C/[C@H](O)[C@H](N)COP(=O)(O)O` (stereo in doubt) [Sphingosine-1-P, sphingosine-1-phosphate, reference compound]?
A: EC50 (P. aeruginosa strain 762; [4]): > 50 µM; EC50 (P. aeruginosa strain 762; [6]): > 50 µM; inhibition of P. aeruginosa growth in vitro (in words) (P. aeruginosa strain 762): without effect; inhibition of P. aeruginosa growth in vitro (in words) (P. aeruginosa strain 762; listed as sphingosine-1-phosphate (S1P)): did not inhibit growth of the bacteria at all

Q: For `CCCCCCCCCCCCCCC[C@H](O)[C@@H](C)N` [1-deoxy-D-erythro-dihydrosphingosine], which EC50 (P. aeruginosa strain 762; [5]) is on record?
A: The EC50 was 0.7 µM.

Q: Which EC50 (P. aeruginosa strain 762; [5]) does the source give for `CCCCCCCCCCCCC/C=C/[C@H](O)[C@@H](C)N` [1-deoxy-D-erythro-sphingosine] here?
A: The EC50 was 0.9 ± 0.1 µM.

Q: Which EC50 (P. aeruginosa strain 762; [5]) does the source give for `CCCCCCCCCCCCC/C=C/[C@@H](O)CN` [1-desoxymethyl sphingosine, 1-desoxymethylsphingosine] here?
A: Its EC50 is 0.7 ± 0.1 µM.

Q: Which EC50 (P. aeruginosa strain 762; [5]) does the source give for `CCCCCCCCCCCCC/C=C/C[C@H](N)CO` [3-deoxy-D-erythro-sphingosine] here?
A: Its EC50 is 0.5 µM.

Q: For `CCCCCCCCc1ccc(CC[C@](N)(CO)CCP(=O)(O)O)cc1` [(R)-FTY-phosphonate], which EC50 (P. aeruginosa strain 762; [4]) is on record?
A: Its EC50 is 5 to 50 µM.

Q: With `CCCCCCC/C=C/[C@@H](O)[C@@H](N)CO` [D-erythro-C12-Sphingosine] as the molecule, how does the EC50 (P. aeruginosa strain 762; [6]) read?
A: Its EC50 is greater than 50 µM.

Q: Which EC50 (P. aeruginosa strain 762; [6]) does the source give for `CCCCCCCCC/C=C/[C@H](O)[C@H](N)CO` [D-erythro-C14-Sphingosine] here?
A: The EC50 was greater than 50 µM.

Q: For `CCCCCCCCCCC/C=C/[C@H](O)[C@H](N)CO` [D-erythro-C16-Sphingosine, D-erythro-C16-sphingosine], which EC50 (P. aeruginosa strain 762; [5]) is on record?
A: The EC50 was 1 ± 0.2 µM.

Q: For `CCCCCCCCCCCCCCC/C=C/[C@H](O)[C@H](N)CO` [D-erythro-C20-Sphingosine, D-erythro-C20-sphingosine], which EC50 (P. aeruginosa strain 762; [5]) is on record?
A: The EC50 was 0.3 µM.

Q: What about the “inhibition of P. aeruginosa growth in vitro (in words)” value (P. aeruginosa strain 762) of the same molecule?
A: The value was “more potent than C18-sphingosine”.

Q: For `CCCCCCCCCCCCCCC[C@@H](O)[C@@H](N)CO` [D-erythro-dihydrosphingosine, (2S,3R)-2-aminooctadecane-1,3-diol], which EC50 (P. aeruginosa strain 762; [4]) is on record?
A: Its EC50 is 0.5 to 1 µM.

Q: And the EC50 (P. aeruginosa strain 762; [5])?
A: Its EC50 is 0.6 ± 0.5 µM.

Q: For `CCCCCCCCCCCCCCC[C@H](O)[C@@H](N)CO` [D-threo-dihydrosphingosine, D-threo-dihydrosphingosine (D-threo-sphinganine)], which EC50 (P. aeruginosa strain 762; [5]) is on record?
A: The EC50 was 0.5 ± 0.1 µM.

Q: With `CCCCCCCCCCCCC/C=C/[C@H](O)[C@@H](N)CO` [D-threo-sphingosine] as the molecule, how does the EC50 (P. aeruginosa strain 762; [5]) read?
A: The EC50 was 0.6 ± 0.1 µM.

Q: For `CCCC[C@@H](C)[C@@H](OC(=O)C[C@@H](CC(=O)O)C(=O)O)[C@H](C[C@@H](C)C[C@H](O)CCCC[C@@H](O)C[C@H](O)[C@H](C)N)OC(=O)C[C@@H](CC(=O)O)C(=O)O` [FB1, fumonisin B1, reference compound], which EC50 (P. aeruginosa strain 762; Pseudomonas aeruginosa, 762, 2 h) is on record?
A: Its EC50 is greater than 50 µM.

Q: With `CCCCCCCCc1ccc(CCC(N)(CO)CO)cc1` [FTY720, 2-amino-2-[2-(4-octylphenyl)ethyl]propane-1,3-diol] as the molecule, how does the EC50 (P. aeruginosa strain 762; [4]) read?
A: The EC50 was 1 to 5 µM.

Q: What about the EC50 (P. aeruginosa strain 762; [5]) of the same molecule?
A: Its EC50 is 1.9 µM.

Q: And the “protection from pulmonary P. aeruginosa infection” value [2]?
A: Its value is “completely protected CF and CerS2 null mice from P. aeruginosa infection and even eliminated an existing infection; also recorded: potent inhibitor in vivo; also recorded: rescue CF and CerS2 null mice from pulmonary P. aeruginosa infection; also recorded: prevents pulmonary P. aeruginosa infection”.

Q: What about the “pK (in PBS)” value ([1]; superscript reference marks) of the same molecule?
A: Its value is 7.8^3.

Q: Which EC50 (P. aeruginosa strain 762; [5]) does the source give for `CCCCCCCCCCCCCCC[C@@H](O)[C@@H](N)CO` [L-erythro-dihydrosphingosine, L-erythro-dihydrosphingosine (L-erythro-sphinganine)] here?
A: The EC50 was 0.8 ± 0.1 µM.

Q: For `CCCCCCCCCCCCC/C=C/[C@@H](O)[C@@H](N)CO` [L-erythro-sphingosine], which EC50 (P. aeruginosa strain 762; [5]) is on record?
A: The EC50 was 0.8 ± 0.1 µM.

Q: Which EC50 (P. aeruginosa strain 762; [5]) does the source give for `CCCCCCCCCCCCC/C=C/[C@@H](O)[C@H](CO)NC` [Monomethyl D-erythro-Sphingosine, Monomethyl D-erythro-sphingosine] here?
A: The EC50 was 1.9 ± 0.1 µM.

Q: Which EC50 (P. aeruginosa strain 762; [6]) does the source give for `CCCCCCCCCCCCCCC[C@@H](O)[C@H](CO)NC(C)=O` [N-acetyl-D-erythro-dihydrosphingosine] here?
A: The EC50 was greater than 50 µM.

Q: What about the “inhibition of P. aeruginosa growth in vitro (in words)” value (P. aeruginosa strain 762) of the same molecule?
A: Its value is “reduces the activity”.

Q: Which EC50 (P. aeruginosa strain 762; [5]) does the source give for `CCCCCCCCCCCCCC[C@@H](O)[C@@H](O)[C@@H](N)CO` [Phyto-sphingosine, 4-D-hydroxysphinganine (phytosphingosine)] here?
A: The EC50 was 0.9 µM.

Q: And the “category as bacterial growth inhibitor” value (P. aeruginosa strain 762; classes by EC50)?
A: The value was “strong inhibitor”.

Q: For `C=C1[C@@H](C)[C@H]2[C@H](Cc3ccccc3)NC(=O)[C@]23OC(=O)/C=C/[C@H](O)CCC[C@@H](C)C/C=C/[C@H]3[C@@H]1O` [cytochalasin B], which “internalization of P. aeruginosa into tracheal epithelial cells” value [3] is on record?
A: The value was “prevented internalization”.
